Data reported in US20210308084A1, “AGENT FOR IMPROVING MUSCLE QUALITY” (AJINOMOTO CO., INC., priority 2018, published 2021).

Tested on: mouse-derived muscle cell line C2C12 (myotube cells)
Assay: Evaluation of muscle insulin signal (pAkt Ser473/total Akt, Western blotting) in myotubes exposed to palmitic acid (FFA)
Type: cell-based
Conditions: FIG. 2; for muscle insulin signal lowered by FFA (phosphorylation index, [(pAkt/Total Akt) Insulin+]/[(pAkt/Total Akt) Insulin-]): amino acid 1 mM added simultaneously with 0.5 mM palmitic acid (FFA), 100 nM insulin stimulation; for action on muscle insulin signal compared with positive control NAC: amino acid 1 mM versus N-acetylcysteine (NAC) 5 mM, 0.5 mM FFA
Method: Using mouse C3H skeletal muscle myoblast (C2C12 cell) (DS Pharma Biomedical Co., Ltd.), the evaluation was performed. Induction of differentiation into myotube cells (Myotubes) was performed using cells with myoblast passage number of 12 to 18. Myoblasts were seeded in a 12-well (diameter=3 cm) plate at 0.3×10^5 to 0.5×10^5/well. After confirmation that the cell proliferation state reached 90% confluent, the medium was replaced with DMEM culture medium supplemented with 2(w/v) % horse serum (HS) and 1(w/v) % penicillin-streptomycin-[…](w/v) % HS, 1(w/v) % […](w/v) % Gln/DMEM), and differentiation into myotube cells (Myotubes) was induced. After confirmation of differentiation into myotube cells (Myotubes), a muscle insulin signal evaluation system was constructed, and the action of each of isoleucine, glycine, and cystine was evaluated using the constructed evaluation system. […] After culturing overnight, the cells were preincubated for about 2 hr in DMEM (BSA/FFA free) with an amino acid concentration of 1/5, stimulated by incubation (15 min-20 min) with 100 nM insulin, and the myotube cells were collected (each n=3). From the collected cells, proteins were extracted with RIPA (Radio-Immunoprecipitation Assay) buffer (Cell Signaling Technologies Inc.), adjusted to a final protein concentration of 0.5 mg/mL, and used as samples. The expression levels of phosphorylated Akt (pAkt) (Ser473) and [NT] in the above-mentioned sample were quantified by the Western blotting (WB) method using anti-phosphorylated Akt (pAkt) (Ser473) antibody (#92715; Cell Signaling Technologies Inc.) and anti-[NT] antibody (#9272S; Cell Signaling Technologies Inc.). The expression level of each protein was quantified using Western blot-chemiluminescent imaging system (Fusion FX) (Vilber-Lourmat Inc.). Each amino acid was added simultaneously with FFA, and the muscle quality-improving effect was examined with the recovery of the muscle insulin signal as an index. The final concentration of each amino acid was adjusted to 1 mM. As a positive control, an antioxidative active substance N-acetylcysteine (NAC) 5 mM was used. From the measurement results of the expression levels of phosphorylated Akt (Ser473) and total Akt, the ratio of phosphorylated Akt and total Akt with insulin stimulation to the ratio of phosphorylated Akt and total Akt without insulin stimulation [(pAkt/Total Akt) Insulin+]/[(pAkt/Total Akt) Insulin-] was determined and shown in FIG. 2 as the phosphorylation index (stimulation index). In FIG. 2, the phosphorylation index is shown as mean±standard error for each sample.

| Compound | muscle insulin signal lowered by FFA (phosphorylation index, [(pAkt/Total Akt) Insulin+]/[(pAkt/Total Akt) Insulin-]) | action on muscle insulin signal compared with positive control NAC |
| --- | --- | --- |
| N[C@@H](CSSC[C@H](N)C(=O)O)C(=O)O [cystine, L-cystine] | restore the muscle insulin signal lowered by FFA | equal to or higher than that of NAC |
| NCC(=O)O [glycine] | restore the muscle insulin signal lowered by FFA | equal to or higher than that of NAC |
| CC[C@H](C)[C@H](N)C(=O)O [isoleucine, L-isoleucine] | restore the muscle insulin signal lowered by FFA | equal to or higher than that of NAC |
